The source of these data is patent US9932331B2, “Phenyl tetrahydroisoquinoline compound substituted with heteroaryl” (TAISHO PHARMACEUTICAL CO., LTD, priority 2014, dated 2018).

Counter-ions that a name gives are not always drawn.

One assay concerns the target T1, human NHE3 (Homo sapiens, UniProt P48764).
T1 sequence (P48764 26-834): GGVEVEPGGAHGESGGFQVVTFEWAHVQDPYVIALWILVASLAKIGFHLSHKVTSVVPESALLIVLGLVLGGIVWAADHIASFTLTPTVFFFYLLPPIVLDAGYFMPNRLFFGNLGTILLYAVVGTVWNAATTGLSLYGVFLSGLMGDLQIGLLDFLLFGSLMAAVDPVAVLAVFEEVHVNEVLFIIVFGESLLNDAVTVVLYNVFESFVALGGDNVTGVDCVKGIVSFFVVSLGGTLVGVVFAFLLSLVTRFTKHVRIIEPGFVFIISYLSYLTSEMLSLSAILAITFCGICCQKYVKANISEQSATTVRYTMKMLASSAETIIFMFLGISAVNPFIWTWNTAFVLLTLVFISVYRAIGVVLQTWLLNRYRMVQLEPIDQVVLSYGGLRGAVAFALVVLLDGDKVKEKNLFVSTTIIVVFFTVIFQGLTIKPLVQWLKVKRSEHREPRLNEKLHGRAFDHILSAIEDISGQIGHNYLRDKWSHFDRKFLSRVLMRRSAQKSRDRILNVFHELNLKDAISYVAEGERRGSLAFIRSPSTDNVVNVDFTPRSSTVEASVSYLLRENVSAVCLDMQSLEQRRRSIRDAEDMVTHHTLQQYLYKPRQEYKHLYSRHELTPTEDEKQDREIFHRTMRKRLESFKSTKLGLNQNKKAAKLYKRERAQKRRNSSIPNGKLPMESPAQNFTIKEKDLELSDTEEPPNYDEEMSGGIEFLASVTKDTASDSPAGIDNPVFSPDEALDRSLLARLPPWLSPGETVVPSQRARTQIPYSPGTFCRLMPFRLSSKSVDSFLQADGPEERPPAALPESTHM
The assay can be described thus: NHE3 inhibition test (recovery of intracellular pH in cell line stably expressing human NHE3). The format is cell-based. The following applies: OK cells deficient in endogenous NHE stably expressing human NHE3; BCECF fluorescence, initial rate of pH recovery; read-out: human NHE3 inhibitory activity IC50. A digest of the protocol: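 Opossum kidney cells lacking endogenous NHE, stably expressing human NHE3, loaded with BCECF-AM and acid-loaded by NH4Cl washout. Compound in Na-free buffer, then Na-containing buffer (pH 7.4) added; initial pH-recovery rate by BCECF fluorescence, IC50 versus no-compound recovery.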

The next assay relates to SD rat. Nature of the assay: 32P-phosphate oral loading test using SD rat (phosphorus absorption inhibitory effect). The format is in vivo. Conditions: SD male rats, plasma radioactivity 30 minutes after 32P-phosphate solution, vs control group. A digest of the protocol: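 Male 8-week-old SD rats were dosed orally at 5 ml/kg with compound at 0.2 mg/mL or 0.6 mg/mL in water, then 5 min later given 32P-phosphate in 1.3 mM NaH2PO4 (5 ml/kg). Plasma radioactivity at 30 minutes was counted by liquid scintillation; inhibition (%) was calculated relative to the water-dosed control group.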

The mark [1] stands for this setting: Rattus norvegicus, 0.5 h, oral dose 3 mg/kg, read-out: Rate of inhibition of phosphate absorption.

By IC50 is commonly meant the concentration that inhibits the measured activity by half. Turning to `CN1Cc2c(Cl)cc(Cl)cc2[C@H](c2cccc(-c3nnn(CCOCCOCCOCCOCCNC(=O)NCCCCNC(=O)NCCOCCOCCOCCOCCn4nnc(-c5cccc([C@@H]6CN(C)Cc7c(Cl)cc(Cl)cc76)c5)n4)n3)c2)C1` [Example 7-29, 1,1′-Butane-1,4-diylbis {3-[14-(5-{3-[(4S)-6,8-dichloro-2-methyl-1,2,3,4-tetrahydroisoquinolin-4-yl]phenyl}-2H-tetrazol-2-yl)-3,6,9,12-tetraoxatetradec-1-yl]urea}hydrochloride], at human NHE3, the IC50 amounted to 6.9 nM. The inhibition in vivo at 3 mg/kg with SD rat (setting [1]) was found to be 10%.

As for `CN1Cc2c(Cl)cc(Cl)cc2[C@H](c2cccc(-c3nnn(CCOCCOCCOCCNC(=O)NCCCCNC(=O)NCCOCCOCCOCCn4nnc(-c5cccc([C@@H]6CN(C)Cc7c(Cl)cc(Cl)cc76)c5)n4)n3)c2)C1` [Example 7-30, 1,1′-Butane-1,4-diylbis {3-[2-(2-{2-[2-(5-{3-[(4S)-6,8-dichloro-2-methyl-1,2,3,4-tetrahydroisoquinolin-4-yl]phenyl}-2H-tetrazol-2-yl)ethoxy]ethoxy}ethoxy)ethyl]urea}hydrochloride], the half-maximal inhibitory concentration (IC50) on human NHE3 came to 2.8 nM. Besides, in the assay on SD rat (setting [1]), the inhibition in vivo at 3 mg/kg worked out at 28%.

As to `CN1Cc2c(Cl)cc(Cl)cc2[C@H](c2cccc(-c3cncc(NCCOCCOCCOCCNC(=O)NCCCCNC(=O)NCCOCCOCCOCCNc4cncc(-c5cccc([C@@H]6CN(C)Cc7c(Cl)cc(Cl)cc76)c5)n4)n3)c2)C1` [Example 7-33, 1,1′-Butane-1,4-diylbis(3-{2-[2-(2-{2-[(6-{3-[(4S)-6,8-dichloro-2-methyl-1,2,3,4-tetrahydroisoquinolin-4-yl]phenyl}pyrazin-2-yl)amino]ethoxy}ethoxy)ethoxy]ethyl}urea) hexahydrochloride], the IC50 at human NHE3 is 8.6 nM. Further, in the assay on SD rat (setting [1]), the inhibition in vivo at 3 mg/kg was -1%.

As for `CN1Cc2c(Cl)cc(Cl)cc2[C@H](c2cccc(-c3cn(CCOCCOCCOCCOCCOCCNC(=O)NCCCCNC(=O)NCCOCCOCCOCCOCCOCCn4cc(-c5cccc([C@@H]6CN(C)Cc7c(Cl)cc(Cl)cc76)c5)nn4)nn3)c2)C1.Cl` [Example 7-39, 1,1′-Butane-1,4-diylbis {3-[17-(4-{3-[(4S)-6,8-dichloro-2-methyl-1,2,3,4-tetrahydroisoquinolin-4-yl]phenyl}-1H-1,2,3-triazol-1-yl)-3,6,9,12,15-pentaoxaheptadec-1-yl]urea}hydrochloride], on human NHE3, the IC50 is 3.2 nM. In the assay with SD rat (oral dose 1 mg/kg), the “Rate of inhibition of phosphate absorption” value was determined as 38%.

In the case of `CN1Cc2c(Cl)cc(Cl)cc2[C@H](c2cccc(-c3cc(NCCOCCOCCOCCNC(=O)NCCCCNC(=O)NCCOCCOCCOCCNc4cc(-c5cccc([C@@H]6CN(C)Cc7c(Cl)cc(Cl)cc76)c5)ncn4)ncn3)c2)C1` [Example 7-40, 1,1′-Butane-1,4-diylbis(3-{2-[2-(2-{2-[(6-{3-[(4S)-6,8-dichloro-2-methyl-1,2,3,4-tetrahydroisoquinolin-4-yl]phenyl}pyrimidin-4-yl)amino]ethoxy}ethoxy)ethoxy]ethyl}urea) trifluoroacetate], the 50% inhibitory concentration (IC50) at human NHE3 turned out to be 11 nM. Also, the inhibition in vivo at 3 mg/kg with SD rat (setting [1]) is 28%.

As for `CN1Cc2c(Cl)cc(Cl)cc2[C@H](c2cccc(-c3cn(CCOCCOCCOCCNC(=O)NCCN(CCCCN(CCNC(=O)NCCOCCOCCOCCn4cc(-c5cccc([C@@H]6CN(C)Cc7c(Cl)cc(Cl)cc76)c5)nn4)C(N)=O)C(N)=O)nn3)c2)C1.O=CO` [Example 7-42, 3,3′-Butane-1,4-diylbis {3-[16-(4-{3-[(4S)-6,8-dichloro-2-methyl-1,2,3,4-tetrahydroisoquinolin-4-yl]phenyl}-1H-1,2,3-triazol-1-yl)-4-oxo-8,11,14-trioxa-3,5-diazahexadec-1-yl]urea}formate], the IC50 at human NHE3 amounted to 5.5 nM. For the same molecule, in the assay with SD rat (oral dose 3 mg/kg), the “Rate of inhibition of phosphate absorption” value is 29%.

Turning to `CN1Cc2c(Cl)cc(Cl)cc2[C@H](c2cccc(-c3cn(CCOCCOCCOCCOCCNC(=O)NCCOCCOCCOCCOCCn4cc(-c5cccc([C@@H]6CN(C)Cc7c(Cl)cc(Cl)cc76)c5)nn4)nn3)c2)C1` [Example 7-43, 1,3-Bis[14-(4-{3-[(4S)-6,8-dichloro-2-methyl-1,2,3,4-tetrahydroisoquinolin-4-yl]phenyl}-1H-1,2,3-triazol-1-yl)-3,6,9,12-tetraoxatetradec-1-yl]urea hydrochloride], at human NHE3, the 50% inhibitory concentration (IC50) turned out to be 8.5 nM. In the assay with SD rat (setting [1]), the inhibition in vivo at 3 mg/kg amounted to 37%.

For the molecule `CN1Cc2c(Cl)cc(Cl)cc2[C@H](c2cccc(-c3cn(CCOCCOCCOCCOCCNC(=O)Nc4ccc(NC(=O)NCCOCCOCCOCCOCCn5cc(-c6cccc([C@@H]7CN(C)Cc8c(Cl)cc(Cl)cc87)c6)nn5)cc4)nn3)c2)C1` [Example 7-45, 1,1′-Benzene-1,4-diylbis {3-[14-(4-{3-[(4S)-6,8-dichloro-2-methyl-1,2,3,4-tetrahydroisoquinolin-4-yl]phenyl}-1H-1,2,3-triazol-1-yl)-3,6,9,12-tetraoxatetradec-1-yl]urea}hydrochloride], the IC50 at human NHE3 turned out to be 5.7 nM. For the same molecule, the inhibition in vivo at 3 mg/kg in the assay with SD rat (setting [1]) was determined as 29%.

As to `CN1Cc2c(Cl)cc(Cl)cc2[C@H](c2cccc(-c3cn(CCOCCOCCOCCOCCOCCNC(=O)Nc4ccc(NC(=O)NCCOCCOCCOCCOCCOCCn5cc(-c6cccc([C@@H]7CN(C)Cc8c(Cl)cc(Cl)cc87)c6)nn5)cc4)nn3)c2)C1` [Example 7-46, 1,1′-Benzene-1,4-diylbis {3-[17-(4-{3-[(4S)-6,8-dichloro-2-methyl-1,2,3,4-tetrahydroisoquinolin-4-yl]phenyl}-1H-1,2,3-triazol-1-yl)-3,6,9,12,15-pentaoxaheptadec-1-yl]urea}hydrochloride], the IC50 at human NHE3 is 10.9 nM. The inhibition in vivo at 3 mg/kg with SD rat (setting [1]) worked out at 23%.

For the molecule `CN1Cc2c(Cl)cc(Cl)cc2[C@H](c2cccc(-c3cncc(NCCOCCOCCNC(=O)CCC(=O)NCCOCCOCCNc4cncc(-c5cccc([C@@H]6CN(C)Cc7c(Cl)cc(Cl)cc76)c5)n4)n3)c2)C1` [Example 8-6, N,N′-Bis[2-(2-{2-[(6-{3-[(4S)-6,8-dichloro-2-methyl-1,2,3,4-tetrahydroisoquinolin-4-yl]phenyl}pyrazin-2-yl)amino]ethoxy}ethoxy)ethyl]butanediamide pentahydrochloride], on human NHE3, the IC50 is 15.5 nM. Moreover, the inhibition in vivo at 3 mg/kg in the assay with SD rat (setting [1]) is 26%.

In the case of `CN1Cc2c(Cl)cc(Cl)cc2[C@H](c2cccc(-c3cc(NCCOCCOCCNC(=O)[C@H](O)[C@@H](O)C(=O)NCCOCCOCCNc4cc(-c5cccc([C@@H]6CN(C)Cc7c(Cl)cc(Cl)cc76)c5)ncn4)ncn3)c2)C1` [Example 8-8, (2R,3R)-N,N′-Bis[2-(2-{2-[(6-{3-[(4S)-6,8-dichloro-2-methyl-1,2,3,4-tetrahydroisoquinolin-4-yl]phenyl}pyrimidin-4-yl)amino]ethoxy}ethoxy)ethyl]-2,3-dihydroxybutanediamide hydrochloride], the concentration for half-maximal inhibition (IC50) at human NHE3 came to 6.2 nM. In the assay with SD rat (setting [1]), the inhibition in vivo at 3 mg/kg is 39%.

Regarding `CN1Cc2c(Cl)cc(Cl)cc2[C@H](c2cccc(-c3cc(NCCOCCOCCOCCNC(=O)CCC(=O)NCCOCCOCCOCCNc4cc(-c5cccc([C@@H]6CN(C)Cc7c(Cl)cc(Cl)cc76)c5)ncn4)ncn3)c2)C1` [Example 8-12, N,N′-Bis{2-[2-(2-{2-[(6-{3-[(4S)-6,8-dichloro-2-methyl-1,2,3,4-tetrahydroisoquinolin-4-yl]phenyl}pyrimidin-4-yl)amino]ethoxy}ethoxy)ethoxy]ethyl}butanediamide hydrochloride], the IC50 at human NHE3 was found to be 6.2 nM. Further, in the assay with SD rat (setting [1]), the inhibition in vivo at 3 mg/kg was 6%.

For the molecule `CN1Cc2c(Cl)cc(Cl)cc2C(c2cccc(-c3cnnc(NCCOCCOCCNC(=O)C(O)C(O)C(=O)NCCOCCOCCNc4cc(-c5cccc(C6CN(C)Cc7c(Cl)cc(Cl)cc76)c5)cnn4)c3)c2)C1` [Example 8-14, (2R,3R)-N-[2-(2-{2-[(5-{3-[(4R)-6,8-Dichloro-2-methyl-1,2,3,4-tetrahydroisoquinolin-4-yl]phenyl}pyridazin-3-yl)amino]ethoxy}ethoxy)ethyl]-N′-[2-(2-{2-[(5-{3-[(4S)-6,8-dichloro-2-methyl-1,2,3,4-tetrahydroisoquinolin-4-yl]phenyl}pyridazin-3-yl)amino]ethoxy}ethoxy)ethyl]-2,3-dihydroxybutanamide tetrahydrochloride], the IC50 at human NHE3 was determined as 9.1 nM. Also, the inhibition in vivo at 1 mg/kg in the assay on SD rat (Rattus norvegicus, 0.5 h, oral dose 1 mg/kg, read-out: Rate of inhibition of phosphate absorption) came out at 46%.
